Source: patent publication US9790227B2, “2-methylsulphanyl-6-nitro-7-oxo-1, 2, 4-triazolo [5, 1-C] [1, 2, 4] triazinide L-arginine dihydrate active toward west nile virus” (LIMITED LIABILITY COMPANY “URAL CENTER OF BIOPHARMACEUTICAL …, priority 2013, dated 2017)

Assays:
West Nile virus = test: Effectiveness in cell culture GMK-AH (1D) against West Nile virus; assay type: cell-based
Description: Monolayer of the cell culture GMK-AH (1D) was infected with West Nile virus in a dose of 0.05 PFU/cell. Virus was adsorbed at 37° C., 5% CO2, for 60 minutes. At the end of the incubation, the monolayer was washed three times with maintenance medium containing 100 u/ml penicillin and streptomycin to remove non-adsorbed virus, and test compounds were added at a concentration of ½ MIC. The substance was dissolved in maintenance medium to the desired concentration. For each compound, not less than 10 tubes with a monolayer of cells were used. Incubation was performed at 37° C., 5% CO2 for 48 hours. Next, the cryodestruction of cells was performed and the samples were combined. The infectious titer in the combined samples was determined by titration by forming negative colonies under the agar coating in the cell culture GMK-AH (1D).

cell culture GMK-AH (1D) = test: Evaluation of cytotoxicity in cell culture GMK-AH (1D); assay type: cell-based
Description: Evaluation of the cytotoxicity of the test compound using a constant cell culture GMK-AH (1D).
To form a continuous monolayer, 1 ml of cell suspension with a density of 200 thousand/ml was added into each tubes and incubate at a temperature (37.0±0.5)° C., 5% CO2.
Then the growth medium was removed and fresh medium containing various concentrations of test drugs (from 1000 to 6.25 µg/ml) was added. The tubes were then incubated for 5 days at a temperature (37.0+0.5)° C., 5% CO2.
Using a light microscope, the state of the monolayer cells was observed: partial or complete destruction of the monolayer cells, damage to individual cells, cell syncytium formation. Control samples were tubes with a monolayer, which included maintenance medium without a drug.

[1] = 250.0 μg/ml (½ MIC), GMK-AH (1D), 0.05 PFU/cell, 48 hours
[2] = cytotoxicity, GMK-AH (1D), 5 days

SMILES: CSc1nc2[nH]nc([N+](=O)[O-])c(=O)n2n1 [Claimed compound, 2-methylsulfanyl-6-nitro-7-oxo-1,2,4-triazolo[5,1-c] [1,2,4]triazinid L-arginine dihydrate]
- Level of the virus accumulation (West Nile virus; [1]): 4.2 lg PFU/ml
- Reduction of the virus accumulation (West Nile virus; [1]): 2.3 lg PFU/ml
- inhibiting factor (West Nile virus; Table 2, GMK-AH (1D)): 99.5%
- inhibits the reproduction of West Nile virus (West Nile virus; Table 2, GMK-AH (1D)): 2.31 g
- antiviral activity in vitro against West Nile virus (West Nile virus; concluding statement): significant antiviral activity
- The frequency of the cytopathic effect of the claimed compound (cell culture GMK-AH (1D); concentration 7.8 mg/mL, GMK-AH (1D), 5 days): 0/4
- The frequency of the cytopathic effect of the claimed compound (cell culture GMK-AH (1D); concentration 15.5 mg/mL, GMK-AH (1D), 5 days): 0/4
- The frequency of the cytopathic effect of the claimed compound (cell culture GMK-AH (1D); concentration 31.3 mg/mL, GMK-AH (1D), 5 days): 0/4
- The frequency of the cytopathic effect of the claimed compound (cell culture GMK-AH (1D); concentration 62.5 mg/mL, GMK-AH (1D), 5 days): 0/4
- The frequency of the cytopathic effect of the claimed compound (cell culture GMK-AH (1D); concentration 250.0 mg/mL, GMK-AH (1D), 5 days): 0/4
- The frequency of the cytopathic effect of the claimed compound (cell culture GMK-AH (1D); concentration 500.0 mg/mL, GMK-AH (1D), 5 days): 0/4
- The frequency of the cytopathic effect of the claimed compound (cell culture GMK-AH (1D); concentration 1000.0 mg/mL, GMK-AH (1D), 5 days): 2/4
- The frequency of the cytopathic effect of the claimed compound (cell culture GMK-AH (1D); concentration 125,0 mg/mL, GMK-AH (1D), 5 days): 0/4
- visible changes in the cell culture (cell culture GMK-AH (1D); concentration of 500 μg/ml, GMK-AH (1D)): did not cause any visible changes
- toxicity in the concentrations used (cell culture GMK-AH (1D); concluding statement): nontoxic
- ½ MIC (cell culture GMK-AH (1D); cytotoxicity, GMK-AH (1D)): 250.0 µg/mL
- MIC (cell culture GMK-AH (1D); [2]): 500.0 µg/mL
- cytotoxic concentration (cell culture GMK-AH (1D); [2]): 1000.0 µg/mL
